According to ChEMBL document CHEMBL1201862, “PubChem BioAssay data set” (2004):
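In this assay, cells in 96-well plates receive the compound at five concentrations for 48 hours. Endpoints are linearly interpolated between the surrounding concentrations. GI50 = concentration required for 50% inhibition of growth.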 Activity calls are given as the source filed them. No stated cut-off is given here; in the data, active = GI50 up to about 1.1 µM and inactive = higher.

What was measured:
Assay in all cases: NCI tumour cell line growth inhibition, 48 h
[1] = system: 786-0
[2] = system: ACHN
[3] = system: HCT-15
[4] = system: HOP-92
[5] = system: K562
[6] = system: Malme-3M
[7] = system: NCI-H23
[8] = system: OVCAR-4
[9] = system: RPMI-8226
[10] = system: SF-295
[11] = system: SK-MEL-28
[12] = system: SK-OV-3
[13] = system: SN12C
[14] = system: SNB-19
[15] = system: BT-549
[16] = system: MCF7
[17] = system: SF-539
[18] = system: DU-145
[19] = system: T47D

| SMILES | GI50 [1] | GI50 [2] | GI50 [3] [µM] | GI50 [4] | GI50 [5] | GI50 [6] | GI50 [7] | GI50 [8] | GI50 [9] | GI50 [10] | GI50 [11] | GI50 [12] | GI50 [13] | GI50 [14] | GI50 [15] | GI50 [16] | GI50 [17] | GI50 [18] | GI50 [19] |
| --- | --- | --- | --- | --- | --- | --- | --- | --- | --- | --- | --- | --- | --- | --- | --- | --- | --- | --- | --- |
| O=C(O)c1cc(=O)c2[nH]c3ccccc3c2s1 | > 100 µM (inactive) | > 100 µM (inactive) | > 100 | > 100 µM (inactive) | > 100 µM (inactive) | > 100 µM (inactive) | > 100 µM (inactive) | > 100 µM (inactive) | > 100 µM (inactive) | > 100 µM (inactive) | > 100 µM (inactive) | > 100 µM (inactive) | > 100 µM (inactive) | > 100 µM (inactive) | – | – | – | – | – |
| Cc1ccc(S(=O)(=O)NC(=O)Nc2c(S(N)(=O)=O)cc(S(N)(=O)=O)c(Cl)c2Cl)cc1 | > 100 µM (inactive) | > 100 µM (inactive) | > 100 | > 100 µM (inactive) | > 100 µM (inactive) | > 100 µM (inactive) | > 100 µM (inactive) | > 100 µM (inactive) | > 100 µM (inactive) | > 100 µM (inactive) | > 100 µM (inactive) | > 100 µM (inactive) | > 100 µM (inactive) | > 100 µM (inactive) | > 100 µM (inactive) | > 100 µM (inactive) | > 100 µM (inactive) | – | – |
| C=CCOC(=O)NC1C(OC(C)[C@@H](NC(=O)OCc2ccccc2)C(=O)OC(C)(C)C)OC(COC(C)=O)C(OC(C)=O)C1OC(C)=O (some centres undefined) | > 100 µM (inactive) | > 100 µM (inactive) | > 100 | > 100 µM (inactive) | 72.9 µM (inactive) | > 100 µM (inactive) | > 100 µM (inactive) | > 100 µM (inactive) | 62.4 µM (inactive) | > 100 µM (inactive) | > 100 µM (inactive) | > 100 µM (inactive) | 43.4 µM (inactive) | > 100 µM (inactive) | – | > 100 µM (inactive) | > 100 µM (inactive) | > 100 µM (inactive) | – |
| O=[N+]([O-])/C=C(\CS(=O)(=O)c1ccccc1)c1ccc2c(c1)OCO2 | 38.5 µM (inactive) | 45.6 µM (inactive) | 37.2 | > 100 µM (inactive) | 66.5 µM (inactive) | – | 5.69 µM (inactive) | – | 87.1 µM (inactive) | 36.7 µM (inactive) | 69.2 µM (inactive) | 33.1 µM (inactive) | 39.7 µM (inactive) | – | – | 48.2 µM (inactive) | > 100 µM (inactive) | 38.9 µM (inactive) | > 100 µM (inactive) |
| CC(C)(C=O)CC(C#N)/C(=N\NC(N)=O)C(=O)Nc1ccccc1C(N)=O (centres undefined) | > 100 µM (inactive) | > 100 µM (inactive) | > 100 | 38.6 µM (inactive) | > 100 µM (inactive) | > 100 µM (inactive) | > 100 µM (inactive) | > 100 µM (inactive) | > 100 µM (inactive) | > 100 µM (inactive) | > 100 µM (inactive) | > 100 µM (inactive) | > 100 µM (inactive) | > 100 µM (inactive) | – | – | > 100 µM (inactive) | – | – |
| COc1c(C)c(C/C=C(\C)CC/C=C(\C)CC/C=C(\C)CCC=C(C)C)c(OC)c2ccccc12 | > 100 µM (inactive) | > 100 µM (inactive) | > 100 | > 100 µM (inactive) | > 100 µM (inactive) | – | > 100 µM (inactive) | > 100 µM (inactive) | – | > 100 µM (inactive) | – | > 100 µM (inactive) | > 100 µM (inactive) | > 100 µM (inactive) | > 100 µM (inactive) | > 100 µM (inactive) | > 100 µM (inactive) | > 100 µM (inactive) | – |
| COc1ccc2c(=O)cc(-c3ccc(OC)c(OC)c3OC)oc2c1 | > 100 µM (inactive) | > 63.2 µM (inactive) | > 100 | 33.1 µM (inactive) | 37.1 µM (inactive) | 40.4 µM (inactive) | > 100 µM (inactive) | > 93.3 µM (inactive) | 16.9 µM (inactive) | 48.1 µM (inactive) | > 100 µM (inactive) | > 89.1 µM (inactive) | 61.4 µM (inactive) | > 60.4 µM (inactive) | > 100 µM (inactive) | – | > 57.3 µM (inactive) | > 100 µM (inactive) | > 100 µM (inactive) |
| Cc1ccc(-c2c(C#N)c(S)n(NS(=O)(=O)c3ccccc3)c(=O)c2C#N)cc1 | 29.6 µM (inactive) | 28.1 µM (inactive) | 21.7 | 24.1 µM (inactive) | 33.6 µM (inactive) | 35.7 µM (inactive) | 37.8 µM (inactive) | 34.4 µM (inactive) | 23.3 µM (inactive) | 34 µM (inactive) | > 100 µM (inactive) | 66.5 µM (inactive) | 27.9 µM (inactive) | 31.5 µM (inactive) | 28.2 µM (inactive) | 28.6 µM (inactive) | 20.6 µM (inactive) | 53.3 µM (inactive) | – |
